Legend:
[1] = HPLC and MS analysis of bupivacaine after association and release from CDA; assay type: physicochemical; conditions: cold isostatic compression; three days in water at 37° C.; HPLC and MS vs native molecule
Description: Bupivacaine-loaded CDA (400 mg) was stirred in 5 ml of water for three days at 37° C. The aqueous solution was passed through a microfiltration membrane with a pore size of 0.22 μm. Several aliquots of this solution were diluted to working concentration with HPLC. An aliquot of this solution (1 ml) was extracted with 1 ml of dichloromethane (HiPerSolv for HPLC, VWR-BDH). The organic phase was dried over Na2SO4 for further MS studies. HPLC HP 1100 (C18 column, Inertsil 5 ODS-3), flow: 0.5 ml mn^−1, solvent: acetonitrile/water [80/20], injection volume: 10 μl, detection: 230 nm). The liquid phase was prepared by mixing Acetonitrile for HPLC Gradient Grade (VWR-BDH-Prolabo) with pure water. A thermo Electron Corporation DSQ II bench-top quadruple mass spectrometer fitted with a direct sample probe or GC, with chemical ionization (CI), was used for data acquisition and processing.

[2] = Stability of bupivacaine within the composition on storage; assay type: physicochemical; conditions: 4° C.
Description: The same method was applied to determine the lidocaine release. A first assay confirmed that the bupivacaine within the composition is stable for 3 months at 4° C.

[3] = continuous intravenous administration; cited from earlier work
[4] = intrabone injection, percutaneous vertebroplastics; cited from earlier work

| Compound | integrity of bupivacaine after association with CDA granules and release [1] | stability of bupivacaine within the composition [2] | postoperative morphine intake [3] | effectiveness versus antalgic protocol comprising nalbuphine and paracetamol [4] | serum levels of lidocaine [4] |
| --- | --- | --- | --- | --- | --- |
| CCCCN1CCCCC1C(=O)Nc1c(C)cccc1C (centres unmarked) [bupivacaine] | remained unchanged | 3 months |  |  |  |
| CCN(CC)CC(=O)Nc1c(C)cccc1C [lidocaine] |  |  | reduction of the postoperative morphine intake | comparable effectiveness | much below the toxic level |

Source: patent US20140004207A1, “Analgesic Apatitic Calcium-Phosphate Cement” (priority 2008, published 2014)
